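Interpolation was linear, between the two tested concentrations surrounding the appropriate level; five concentrations were tested over 48 hours in 96-well plates. GI50 marks 50% less growth. TGI denotes the concentration required for complete inhibition of growth.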
Tests used:
Test in all cases: NCI tumour cell line growth inhibition, 48 h
OVCAR-3 ovarian = tested on: OVCAR-3 ovarian
HT29 colon = tested on: HT29 colon
A498 renal = tested on: A498 renal
K-562 leukemia = tested on: K-562 leukemia
CCRF-CEM leukemia = tested on: CCRF-CEM leukemia
SNB-75 CNS = tested on: SNB-75 CNS
NCI-H23 lung = tested on: NCI-H23 lung
DU-145 prostate = tested on: DU-145 prostate
CAKI-1 renal = tested on: CAKI-1 renal
SNB-19 CNS = tested on: SNB-19 CNS

Structure (SMILES) | GI50 (OVCAR-3 ovarian) [nM] | TGI (OVCAR-3 ovarian) [µM] | GI50 (HT29 colon) [µM] | TGI (HT29 colon) [µM] | GI50 (A498 renal) [µM] | TGI (A498 renal) [µM] | GI50 (K-562 leukemia) [nM] | TGI (K-562 leukemia) [µM] | GI50 (CCRF-CEM leukemia) [nM] | TGI (CCRF-CEM leukemia) [µM] | GI50 (SNB-75 CNS) [µM] | TGI (SNB-75 CNS) [µM] | GI50 (NCI-H23 lung) [µM] | TGI (NCI-H23 lung) [µM] | GI50 (DU-145 prostate) [µM] | TGI (DU-145 prostate) [µM] | GI50 (CAKI-1 renal) [nM] | TGI (CAKI-1 renal) [µM] | GI50 (SNB-19 CNS) [µM] | TGI (SNB-19 CNS) [µM]
CC1=C(C(=O)OCc2ccccc2)C(c2ccc3c(c2)OCO3)n2c(nc3ccccc32)N1 (centres undefined) | 235 | 0.998 | 0.352 | > 100 | 0.362 | > 100 | 276 | > 100 | 418 | > 100 | 0.215 | 0.801 | > 56.4 | > 100 | 0.488 | > 100 | 275 | > 100 | 0.54 | > 100
N#CC(C#N)=Cc1ccc(-c2ccc(-c3nc4ccccc4s3)cc2)o1 | 66900 | > 100 | 46 | > 100 | 0.346 | 0.985 | 27400 | > 100 | 4150 | 70.6 | 25.3 | 60 | 15.6 | 43.3 | 18.2 | 78.2 | 25000 | > 100 | 30 | 84.3
N#CSc1ncnc2nc[nH]c12 | 1660 | > 31.6 | 9.69 | > 100 | 24.1 | > 100 | 1240 | > 100 | 3320 | > 100 | 7.19 | > 100 | 9.96 | > 100 | 0.548 | > 38.7 | 2010 | 30.1 | > 100 | > 100
CC12CCC=CC1CCC1C2CCC2(C)C(c3ccc(=O)oc3)CCC12O (centres undefined) | 61.4 | 0.258 | 0.0516 | 0.801 | 0.0496 | 0.457 | 58.7 | – | 36.4 | 0.544 | 0.0282 | 0.164 | 0.0492 | 0.302 | 0.0553 | 0.165 | 94.2 | 0.548 | 0.215 | 1.23
OCC1OC(n2ccc3c2ncn2ncnc32)C(O)C1O (centres undefined) | 552 | > 100 | 0.444 | > 100 | 0.205 | 2.37 | 2070 | > 100 | 596 | > 100 | 4.2 | 68.7 | 1.4 | > 100 | 0.379 | > 100 | 2670 | > 100 | 4.7 | > 100
CCc1c(C)[nH]c(/C=C2\N=C(c3ccc[nH]3)C=C2OC)c1C | 143 | 3.18 | < 0.0376 | 2.29 | 6.87 | 21.5 | 805 | 8.97 | < 25.7 | 2.11 | 0.269 | 0.71 | 1.1 | 11.3 | 0.219 | 11 | 292 | 3.53 | 1.96 | 15.7
CN(C)c1ccc2nc3ccc(=[N+](C)C)cc-3oc2c1 | 400 | 5.09 | 3.38 | 29.3 | 13.7 | 41.9 | 1580 | 71.9 | 1210 | 32.2 | 2.63 | 17.1 | 0.788 | 5.6 | 5.71 | 49.4 | 5920 | 57.6 | 2.49 | > 100
CC(C)(O)c1ccc(N2CCN(c3nnc(Cc4ccccc4)c4ccccc34)CC2)nc1 | 10400 | 47.5 | 12 | 37.7 | 13.9 | 42.5 | 4810 | > 72.9 | 8260 | > 93 | 9.74 | 24.5 | 5.68 | 28.4 | 12.1 | 34.8 | 11300 | 30.9 | 15.8 | 67.1
Nc1ncnc2sc(=S)c3c(c12)CCC3 | 30700 | > 100 | 29.8 | 62.8 | 28.2 | 79.5 | 36100 | > 100 | 27100 | 79.5 | 88.7 | > 100 | 21.1 | 56.8 | 19.1 | 57.4 | 30900 | > 100 | 29.2 | 82.9
CC12CCC(=O)C=C1CCC1C2CCC2(C)C(C(=O)Cn3cnc4c(=S)nc[nH]c43)CCC12 (centres undefined) | – | 49.6 | – | > 100 | – | 79 | – | > 100 | – | > 100 | – | 36.8 | – | 82.5 | – | 66.4 | – | > 100 | – | 73.8
O=S(=O)(c1ccc(NC(=S)NCc2cccnc2)cc1)N1CCCCC1 | 52600 | > 100 | 90.5 | > 100 | 15 | > 100 | 1380 | > 100 | 823 | > 100 | 25.6 | > 100 | 28.6 | > 100 | 6.12 | > 100 | 20400 | > 100 | 9.5 | > 100
N#Cc1ncc(/N=C/c2ccc(N(CCCl)CCCl)cc2)s1 | 14500 | 45 | 72.8 | > 100 | 1.63 | 4.4 | 7510 | > 100 | 16000 | > 100 | 17.6 | > 100 | 5.53 | > 100 | 5.62 | 57.1 | 2220 | 8.18 | 77.7 | > 100
